According to the supplement of paper PMC10307832:

Key:
Test in all cases: relative viability (nuclei count vs DMSO), 5 days (fraction); higher = more cells survive
[1] = compound: C1CCC(CC1)N(CCNCCC2=C3C(=C(C=C2)O)NC(=O)CO3)C(=O)CCNCCC4=CC(=C(C=C4)Cl)Cl [AZ505] + COc1cccc2cc(-c3nc([C@H]4CC[C@H](C(=O)O)CC4)n4ncnc(N)c34)[nH]c12 [OSI-027] (partner 0.5 µM)
How it was run: (§1)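 Relative viability was taken as the ratio of nuclei in treated wells to nuclei in vehicle wells. Lung cancer cell lines in 1536-well plates received compounds by pin tool one day after seeding, either one drug alone or a fixed anchor-drug dose plus five library-drug doses (not always all listed) in √10 steps. Nuclei were counted on 4× images after 5 days of treatment, and values are medians of duplicate plates.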

[2] = compound: C1CCC(CC1)N(CCNCCC2=C3C(=C(C=C2)O)NC(=O)CO3)C(=O)CCNCCC4=CC(=C(C=C4)Cl)Cl [AZ505] + Cc1cc(Nc2cc(N3CCN(C)CC3)nc(Sc3ccc(NC(=O)C4CC4)cc3)n2)n[nH]1 [Tozasertib] (partner 0.1 µM)
How it was run: as §1

[3] = compound: C1CCC(CC1)N(CCNCCC2=C3C(=C(C=C2)O)NC(=O)CO3)C(=O)CCNCCC4=CC(=C(C=C4)Cl)Cl [AZ505] + C[C@]1(O)C[C@@H](c2nc(-c3ccc4ccc(-c5ccccc5)nc4c3)c3c(N)nccn32)C1 [Linsitinib] (partner 1 µM)
How it was run: as §1

[4] = compound: C1CCC(CC1)N(CCNCCC2=C3C(=C(C=C2)O)NC(=O)CO3)C(=O)CCNCCC4=CC(=C(C=C4)Cl)Cl [AZ505] + CS(=O)(=O)N1CCN(Cc2cc3nc(-c4cccc5[nH]ncc45)nc(N4CCOCC4)c3s2)CC1 [Pictilisib] (partner 1 µM)
How it was run: as §1

NCI-H2228
relative viability ([1]; first compound 0.08 µM): 0.382 | relative viability ([1]; first compound 0.253 µM): 0.341 | relative viability ([1]; first compound 0.8 µM): 0.49 | relative viability ([1]; first compound 2.53 µM): 0.485 | relative viability ([1]; first compound 8 µM): 0.477 | relative viability ([2]; first compound 0.08 µM): 0.23 | relative viability ([2]; first compound 0.253 µM): 0.279 | relative viability ([2]; first compound 0.8 µM): 0.164 | relative viability ([2]; first compound 2.53 µM): 0.206 | relative viability ([2]; first compound 8 µM): 0.236 | relative viability ([3]; first compound 0.08 µM): 0.418 | relative viability ([3]; first compound 0.253 µM): 0.651 | relative viability ([3]; first compound 0.8 µM): 0.53 | relative viability ([3]; first compound 2.53 µM): 0.549 | relative viability ([3]; first compound 8 µM): 0.49 | relative viability ([4]; first compound 0.08 µM): 0.317 | relative viability ([4]; first compound 0.253 µM): 0.247 | relative viability ([4]; first compound 0.8 µM): 0.536 | relative viability ([4]; first compound 2.53 µM): 0.332 | relative viability ([4]; first compound 8 µM): 0.484

NCI-H2347
relative viability ([1]; first compound 0.08 µM): 0.25 | relative viability ([1]; first compound 8 µM): 0.343 | relative viability ([2]; first compound 0.08 µM): 0.492 | relative viability ([2]; first compound 8 µM): 0.54 | relative viability ([3]; first compound 0.08 µM): 0.6 | relative viability ([3]; first compound 0.253 µM): 0.603 | relative viability ([3]; first compound 0.8 µM): 0.668 | relative viability ([3]; first compound 2.53 µM): 0.543 | relative viability ([3]; first compound 8 µM): 0.714 | relative viability ([4]; first compound 0.08 µM): 0.551 | relative viability ([4]; first compound 0.253 µM): 0.581 | relative viability ([4]; first compound 0.8 µM): 0.537 | relative viability ([4]; first compound 2.53 µM): 0.455 | relative viability ([4]; first compound 8 µM): 0.541

NCI-H2405
relative viability ([1]; first compound 0.08 µM): 0.436 | relative viability ([1]; first compound 0.253 µM): 0.511 | relative viability ([1]; first compound 0.8 µM): 0.528 | relative viability ([1]; first compound 2.53 µM): 0.574 | relative viability ([1]; first compound 8 µM): 0.501 | relative viability ([2]; first compound 0.08 µM): 0.508 | relative viability ([2]; first compound 0.253 µM): 0.594 | relative viability ([2]; first compound 0.8 µM): 0.45 | relative viability ([2]; first compound 2.53 µM): 0.516 | relative viability ([2]; first compound 8 µM): 0.503 | relative viability ([3]; first compound 0.08 µM): 0.585 | relative viability ([3]; first compound 0.253 µM): 0.639 | relative viability ([3]; first compound 0.8 µM): 0.62 | relative viability ([3]; first compound 2.53 µM): 0.563 | relative viability ([3]; first compound 8 µM): 0.714 | relative viability ([4]; first compound 0.08 µM): 0.256 | relative viability ([4]; first compound 0.253 µM): 0.21 | relative viability ([4]; first compound 0.8 µM): 0.278 | relative viability ([4]; first compound 2.53 µM): 0.259 | relative viability ([4]; first compound 8 µM): 0.254

NCI-H3122
relative viability ([1]; first compound 0.08 µM): 0.927 | relative viability ([1]; first compound 0.253 µM): 0.917 | relative viability ([1]; first compound 0.8 µM): 1.05 | relative viability ([1]; first compound 2.53 µM): 0.875 | relative viability ([1]; first compound 8 µM): 0.996 | relative viability ([2]; first compound 0.08 µM): 0.381 | relative viability ([2]; first compound 0.253 µM): 0.401 | relative viability ([2]; first compound 0.8 µM): 0.436 | relative viability ([2]; first compound 2.53 µM): 0.355 | relative viability ([2]; first compound 8 µM): 0.411 | relative viability ([3]; first compound 0.08 µM): 0.963 | relative viability ([3]; first compound 0.253 µM): 1.03 | relative viability ([3]; first compound 0.8 µM): 0.911 | relative viability ([3]; first compound 2.53 µM): 1.01 | relative viability ([3]; first compound 8 µM): 0.967 | relative viability ([4]; first compound 0.08 µM): 0.561 | relative viability ([4]; first compound 0.253 µM): 0.573 | relative viability ([4]; first compound 0.8 µM): 0.665 | relative viability ([4]; first compound 2.53 µM): 0.409 | relative viability ([4]; first compound 8 µM): 0.643

PC-3 [JPC-3]
relative viability ([1]; first compound 0.08 µM): 0.671 | relative viability ([1]; first compound 0.253 µM): 0.798 | relative viability ([1]; first compound 0.8 µM): 0.712 | relative viability ([1]; first compound 2.53 µM): 0.707 | relative viability ([1]; first compound 8 µM): 0.797 | relative viability ([2]; first compound 0.08 µM): 0.83 | relative viability ([2]; first compound 0.253 µM): 0.919 | relative viability ([2]; first compound 0.8 µM): 0.87 | relative viability ([2]; first compound 2.53 µM): 0.848 | relative viability ([2]; first compound 8 µM): 0.867 | relative viability ([3]; first compound 0.08 µM): 0.923 | relative viability ([3]; first compound 0.253 µM): 0.935 | relative viability ([3]; first compound 0.8 µM): 0.938 | relative viability ([3]; first compound 2.53 µM): 0.862 | relative viability ([3]; first compound 8 µM): 0.947 | relative viability ([4]; first compound 0.08 µM): 0.597 | relative viability ([4]; first compound 0.253 µM): 0.702 | relative viability ([4]; first compound 0.8 µM): 0.676 | relative viability ([4]; first compound 2.53 µM): 0.706 | relative viability ([4]; first compound 8 µM): 0.827

PC-14
relative viability ([1]; first compound 0.08 µM): 0.72 | relative viability ([1]; first compound 0.253 µM): 0.835 | relative viability ([1]; first compound 0.8 µM): 0.666 | relative viability ([1]; first compound 2.53 µM): 0.765 | relative viability ([1]; first compound 8 µM): 0.786 | relative viability ([2]; first compound 0.08 µM): 0.549 | relative viability ([2]; first compound 0.253 µM): 0.594 | relative viability ([2]; first compound 0.8 µM): 0.586 | relative viability ([2]; first compound 2.53 µM): 0.509 | relative viability ([2]; first compound 8 µM): 0.554 | relative viability ([3]; first compound 0.08 µM): 0.88 | relative viability ([3]; first compound 0.253 µM): 0.948 | relative viability ([3]; first compound 0.8 µM): 0.922 | relative viability ([3]; first compound 2.53 µM): 0.881 | relative viability ([3]; first compound 8 µM): 0.951 | relative viability ([4]; first compound 0.08 µM): 0.449 | relative viability ([4]; first compound 0.253 µM): 0.754 | relative viability ([4]; first compound 0.8 µM): 0.658 | relative viability ([4]; first compound 2.53 µM): 0.643 | relative viability ([4]; first compound 8 µM): 0.703

RERF-LC-KJ
relative viability ([1]; first compound 0.08 µM): 0.471 | relative viability ([1]; first compound 0.253 µM): 0.575 | relative viability ([1]; first compound 0.8 µM): 0.552 | relative viability ([1]; first compound 2.53 µM): 0.574 | relative viability ([1]; first compound 8 µM): 0.492 | relative viability ([2]; first compound 0.08 µM): 0.432 | relative viability ([2]; first compound 0.253 µM): 0.432 | relative viability ([2]; first compound 0.8 µM): 0.467 | relative viability ([2]; first compound 2.53 µM): 0.459 | relative viability ([2]; first compound 8 µM): 0.388 | relative viability ([3]; first compound 0.08 µM): 0.857 | relative viability ([3]; first compound 0.253 µM): 0.85 | relative viability ([3]; first compound 0.8 µM): 0.929 | relative viability ([3]; first compound 2.53 µM): 0.897 | relative viability ([3]; first compound 8 µM): 0.902 | relative viability ([4]; first compound 0.08 µM): 0.578 | relative viability ([4]; first compound 0.253 µM): 0.591 | relative viability ([4]; first compound 0.8 µM): 0.448 | relative viability ([4]; first compound 2.53 µM): 0.565 | relative viability ([4]; first compound 8 µM): 0.666

SK-LU-1
relative viability ([1]; first compound 0.08 µM): 0.168 | relative viability ([1]; first compound 0.253 µM): 0.184 | relative viability ([1]; first compound 0.8 µM): 0.201 | relative viability ([1]; first compound 2.53 µM): 0.197 | relative viability ([1]; first compound 8 µM): 0.255 | relative viability ([2]; first compound 0.08 µM): 0.312 | relative viability ([2]; first compound 0.253 µM): 0.302 | relative viability ([2]; first compound 0.8 µM): 0.242 | relative viability ([2]; first compound 2.53 µM): 0.345 | relative viability ([2]; first compound 8 µM): 0.235 | relative viability ([3]; first compound 0.08 µM): 0.45 | relative viability ([3]; first compound 0.253 µM): 0.592 | relative viability ([3]; first compound 0.8 µM): 0.798 | relative viability ([3]; first compound 2.53 µM): 0.588 | relative viability ([3]; first compound 8 µM): 0.765 | relative viability ([4]; first compound 0.08 µM): 0.333 | relative viability ([4]; first compound 0.253 µM): 0.419 | relative viability ([4]; first compound 0.8 µM): 0.332 | relative viability ([4]; first compound 2.53 µM): 0.323 | relative viability ([4]; first compound 8 µM): 0.435

SK-MES-1
relative viability ([1]; first compound 0.08 µM): 0.501 | relative viability ([1]; first compound 0.253 µM): 0.53 | relative viability ([1]; first compound 0.8 µM): 0.534 | relative viability ([1]; first compound 2.53 µM): 0.577 | relative viability ([1]; first compound 8 µM): 0.583 | relative viability ([2]; first compound 0.08 µM): 0.853 | relative viability ([2]; first compound 0.253 µM): 0.863 | relative viability ([2]; first compound 0.8 µM): 0.898 | relative viability ([2]; first compound 2.53 µM): 0.785 | relative viability ([2]; first compound 8 µM): 0.884 | relative viability ([3]; first compound 0.08 µM): 0.89 | relative viability ([3]; first compound 0.253 µM): 0.922 | relative viability ([3]; first compound 0.8 µM): 0.97 | relative viability ([3]; first compound 2.53 µM): 0.879 | relative viability ([3]; first compound 8 µM): 1.03 | relative viability ([4]; first compound 0.08 µM): 0.377 | relative viability ([4]; first compound 0.253 µM): 0.394 | relative viability ([4]; first compound 0.8 µM): 0.388 | relative viability ([4]; first compound 2.53 µM): 0.38 | relative viability ([4]; first compound 8 µM): 0.411

SW 1573
relative viability ([1]; first compound 0.08 µM): 0.589 | relative viability ([1]; first compound 0.253 µM): 0.579 | relative viability ([1]; first compound 0.8 µM): 0.689 | relative viability ([1]; first compound 2.53 µM): 0.68 | relative viability ([1]; first compound 8 µM): 0.63 | relative viability ([2]; first compound 0.08 µM): 0.174 | relative viability ([2]; first compound 0.253 µM): 0.169 | relative viability ([2]; first compound 0.8 µM): 0.175 | relative viability ([2]; first compound 2.53 µM): 0.171 | relative viability ([2]; first compound 8 µM): 0.144 | relative viability ([3]; first compound 0.08 µM): 0.666 | relative viability ([3]; first compound 0.253 µM): 0.828 | relative viability ([3]; first compound 0.8 µM): 0.849 | relative viability ([3]; first compound 2.53 µM): 0.872 | relative viability ([3]; first compound 8 µM): 0.829 | relative viability ([4]; first compound 0.08 µM): 0.456 | relative viability ([4]; first compound 0.253 µM): 0.514 | relative viability ([4]; first compound 0.8 µM): 0.422 | relative viability ([4]; first compound 2.53 µM): 0.467 | relative viability ([4]; first compound 8 µM): 0.571
